# Structures can show the parent of a compound that is named as a salt. Where two headings read alike, the source gives them in different places.
# Tests used:
# [1] = biological target: CYP3A4 (Homo sapiens (Human), UniProt P08684); experiment: Cytochrome oxidase P450 inhibition study, CYP3A4; assay type: in vitro ADME; details: human liver microsomes
# Description: (§1) LC-MS/MS methods were used to evaluate the inhibitory effects of compounds on CYP2C19, 2D6 and 3A4 subtypes. In this method, the test compound was mixed with a solution of human liver microsomes containing CYP model substrates, and incubated together under the addition of NADPH, then the inhibitory IC50 of the compound on CYP2C19, 2D6 and 3A4 was calculated by measuring the amount of metabolites of the model substrate in the reaction solution. The specific experimental method is as follows:
# (§2) Compounds to be tested were prepared as stock solutions at 10 mM concentration with DMSO and then diluted to 4 mM with acetonitrile solution. At the same time, the corresponding reference inhibitor solutions for CYP subtypes were prepared, for example, the reference inhibitor was Ketoconazole, then these two compounds were prepared separately ([…] of inhibitor DMSO stock solution+[…] of acetonitrile), and the samples prepared under the above conditions were at 400× concentration. Then, the above solution was 3-fold diluted with DMSO/acetonitrile mixture (v/v: 40/60) to prepare the final test solution, and seven concentration points were set for each test compound, and the initial test final concentration was 10 μM. NADPH, CYP enzyme model substrate and human liver microsome solution were diluted to appropriate concentrations with pre-warmed potassium phosphate buffer (0.1 M, pH 7.4), respectively. The human liver microsome solution was purchased from BD Gentest (20 mg/mL, Corning, article number #452161).
# […] of human liver microsome solution (0.2 mg/mL) was added to each well containing the test compound in the 96-well plate, and then 2 mL of the final test sample of test compounds prepared by serial dilution as described above was added thereto; for each well corresponding to the reference inhibitors, […] of human liver microsome solution (0.2 mg/mL) and 1 mL of the final test sample were added. […] of the prepared corresponding model substrate was dispensed into a 96-well plate, and the microsome solution was mixed evenly, then 30 mL of the test compound/reference inhibitor-human liver microsome mixture was taken and transferred to the 96-well plate containing the substrate, and the mixture was mixed well and preheated at 37° C. for 5 minutes, then […] of 8 mM NADPH solution preheated at 37° C. was added thereto to start the reaction. A duplicate well control and a blank control without the addition of test substances were set at the same time. The 96-well plate containing a total volume of […] of reaction solution was incubated at 37° C. After the incubation, 120 μL of cold acetonitrile solution containing internal standard was added to each well to terminate the reaction, and then the 96-well plate was shaked on a microplate shaker for 5 minutes (600 rpm/min), and put into a centrifuge and centrifuged for 20 minutes at 6000 rpm, 4° C. Then 40 μL of supernatant from each well was transferred to another 96-well plate, and 80 μL of ultrapure water was added to each well, put into a shaker and mixed for 5 minutes (600 rpm/min), and centrifuged at 6000 rpm, 4° C., for 20 minutes. Then LC-MS/MS detection was performed. The inhibition rate was determined by comparing the amount of model substrate metabolites at each test concentration without test substance addition, in the GraphPad Prism 5.0 software, the logarithm of the test concentration was used as the abscissa and the inhibition rate was used as the ordinate to perform a linear regression (Sigmoidal (non-linear) dose-response model) analysis to obtain the IC50 value of the test compound.
# [2] = biological target: ATR/ATRIP kinase (Homo sapiens (Human), UniProt Q13535); experiment: ATR enzyme assay (HTRF, phosphorylation of substrate protein P53); assay type: biochemical; details: substrate P53, TR-FRET
# Sequence of ATR/ATRIP kinase (Q13535 whole entry): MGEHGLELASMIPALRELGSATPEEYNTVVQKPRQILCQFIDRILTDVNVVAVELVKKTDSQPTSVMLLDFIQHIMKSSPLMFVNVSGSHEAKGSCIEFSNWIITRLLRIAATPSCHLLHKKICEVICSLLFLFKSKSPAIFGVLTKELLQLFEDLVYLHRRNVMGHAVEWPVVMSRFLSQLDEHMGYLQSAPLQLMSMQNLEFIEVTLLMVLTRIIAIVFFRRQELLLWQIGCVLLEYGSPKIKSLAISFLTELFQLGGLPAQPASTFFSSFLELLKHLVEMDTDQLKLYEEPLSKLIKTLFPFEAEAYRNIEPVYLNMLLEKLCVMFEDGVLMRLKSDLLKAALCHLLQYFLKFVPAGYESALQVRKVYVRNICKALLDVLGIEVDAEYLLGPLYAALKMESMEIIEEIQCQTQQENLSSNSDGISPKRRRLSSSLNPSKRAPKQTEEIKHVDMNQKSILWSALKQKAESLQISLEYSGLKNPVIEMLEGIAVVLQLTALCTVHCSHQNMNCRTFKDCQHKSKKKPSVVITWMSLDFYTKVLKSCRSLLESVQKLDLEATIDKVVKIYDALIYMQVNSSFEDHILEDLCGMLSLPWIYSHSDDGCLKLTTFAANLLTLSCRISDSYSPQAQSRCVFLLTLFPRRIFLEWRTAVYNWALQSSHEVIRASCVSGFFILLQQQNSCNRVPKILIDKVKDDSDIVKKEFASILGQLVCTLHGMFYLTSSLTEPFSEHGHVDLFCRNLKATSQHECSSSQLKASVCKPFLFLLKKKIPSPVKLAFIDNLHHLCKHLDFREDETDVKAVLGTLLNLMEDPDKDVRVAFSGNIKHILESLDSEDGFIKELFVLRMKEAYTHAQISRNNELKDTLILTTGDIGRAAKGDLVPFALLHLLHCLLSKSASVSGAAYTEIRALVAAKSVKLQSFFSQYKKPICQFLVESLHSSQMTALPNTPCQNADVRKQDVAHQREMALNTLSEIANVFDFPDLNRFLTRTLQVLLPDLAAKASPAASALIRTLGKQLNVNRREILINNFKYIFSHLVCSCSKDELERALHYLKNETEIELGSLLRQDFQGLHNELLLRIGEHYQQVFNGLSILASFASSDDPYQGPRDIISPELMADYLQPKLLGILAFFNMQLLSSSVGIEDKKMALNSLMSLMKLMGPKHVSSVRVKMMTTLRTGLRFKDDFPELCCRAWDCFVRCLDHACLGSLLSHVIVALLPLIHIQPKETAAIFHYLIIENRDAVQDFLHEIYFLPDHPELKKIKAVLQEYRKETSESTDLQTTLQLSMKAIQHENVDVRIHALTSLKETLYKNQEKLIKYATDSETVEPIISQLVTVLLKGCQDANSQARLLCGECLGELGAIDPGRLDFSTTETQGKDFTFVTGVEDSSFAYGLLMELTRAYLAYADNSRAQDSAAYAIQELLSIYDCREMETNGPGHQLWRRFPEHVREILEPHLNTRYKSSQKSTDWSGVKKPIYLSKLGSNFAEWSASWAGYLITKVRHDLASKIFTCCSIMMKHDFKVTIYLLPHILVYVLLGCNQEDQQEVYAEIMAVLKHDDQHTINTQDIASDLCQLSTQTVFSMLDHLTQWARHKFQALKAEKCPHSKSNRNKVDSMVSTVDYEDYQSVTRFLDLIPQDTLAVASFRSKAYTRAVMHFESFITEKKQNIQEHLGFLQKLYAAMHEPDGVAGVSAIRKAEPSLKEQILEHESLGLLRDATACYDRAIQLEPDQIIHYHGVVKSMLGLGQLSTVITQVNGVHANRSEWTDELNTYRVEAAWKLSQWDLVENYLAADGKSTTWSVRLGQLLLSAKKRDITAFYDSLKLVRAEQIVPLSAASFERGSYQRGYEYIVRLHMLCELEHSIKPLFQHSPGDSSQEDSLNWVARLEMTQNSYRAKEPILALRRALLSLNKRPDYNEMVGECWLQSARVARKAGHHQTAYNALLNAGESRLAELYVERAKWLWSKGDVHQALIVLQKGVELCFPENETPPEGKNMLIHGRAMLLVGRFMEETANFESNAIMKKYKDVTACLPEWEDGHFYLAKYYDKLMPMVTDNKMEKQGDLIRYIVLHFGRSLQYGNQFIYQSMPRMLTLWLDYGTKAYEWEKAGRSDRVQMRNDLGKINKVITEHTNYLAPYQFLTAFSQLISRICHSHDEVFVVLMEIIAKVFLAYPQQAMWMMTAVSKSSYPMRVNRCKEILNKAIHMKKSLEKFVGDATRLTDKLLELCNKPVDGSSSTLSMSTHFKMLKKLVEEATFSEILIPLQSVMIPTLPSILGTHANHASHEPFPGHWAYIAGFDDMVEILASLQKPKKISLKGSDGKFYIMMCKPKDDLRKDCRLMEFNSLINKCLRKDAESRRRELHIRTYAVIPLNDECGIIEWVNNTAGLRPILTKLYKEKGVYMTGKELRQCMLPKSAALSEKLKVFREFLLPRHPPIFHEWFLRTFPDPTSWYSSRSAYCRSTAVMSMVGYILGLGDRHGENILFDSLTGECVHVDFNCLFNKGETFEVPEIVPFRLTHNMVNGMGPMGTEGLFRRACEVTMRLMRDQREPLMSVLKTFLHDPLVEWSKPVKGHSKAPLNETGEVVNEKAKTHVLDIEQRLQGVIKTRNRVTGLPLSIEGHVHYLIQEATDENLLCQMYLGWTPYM
# Sequence of ATR/ATRIP kinase (Q8WXE1 whole entry partner): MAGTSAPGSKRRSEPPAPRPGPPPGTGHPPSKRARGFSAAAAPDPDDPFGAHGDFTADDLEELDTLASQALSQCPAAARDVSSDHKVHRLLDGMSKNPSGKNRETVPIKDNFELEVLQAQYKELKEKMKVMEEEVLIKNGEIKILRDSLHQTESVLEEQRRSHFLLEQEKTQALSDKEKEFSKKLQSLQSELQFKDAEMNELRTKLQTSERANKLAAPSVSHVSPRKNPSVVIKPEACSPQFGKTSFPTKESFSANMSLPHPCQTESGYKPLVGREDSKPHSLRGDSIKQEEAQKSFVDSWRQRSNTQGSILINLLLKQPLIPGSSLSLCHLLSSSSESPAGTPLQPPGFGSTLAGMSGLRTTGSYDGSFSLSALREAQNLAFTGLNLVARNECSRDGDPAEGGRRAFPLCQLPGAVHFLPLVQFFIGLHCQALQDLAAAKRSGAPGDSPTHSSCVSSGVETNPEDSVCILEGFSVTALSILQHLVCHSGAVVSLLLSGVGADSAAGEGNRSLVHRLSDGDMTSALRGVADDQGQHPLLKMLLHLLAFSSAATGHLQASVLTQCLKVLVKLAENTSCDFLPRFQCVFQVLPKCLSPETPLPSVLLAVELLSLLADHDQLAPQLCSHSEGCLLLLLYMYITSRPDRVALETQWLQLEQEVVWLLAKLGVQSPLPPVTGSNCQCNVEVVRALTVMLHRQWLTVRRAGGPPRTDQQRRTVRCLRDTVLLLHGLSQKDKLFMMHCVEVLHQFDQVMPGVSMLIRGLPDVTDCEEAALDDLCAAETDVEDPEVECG
# Description: In this experiment, the phosphorylation level of substrate protein P53 (Eurofins, 14-952) was detected by HTRF technology to measure the activity of ATR/ATRIP (Eurofins, 14-953) kinase. Reaction buffer (25 mM HEPES pH 8.0, 0.01% Brij-35, 1% Glycerol, 5 mM DTT, 1 mg/mL BSA), termination buffer (12.5 mM HEPES pH 8.0, 0.005% Brij-35, 0.5% Glycerol, 250 mM EDTA) and assay buffer (50 mM HEPES pH 7.0, 150 mM NaCl, 267 mM KF, 0.1% sodium cholate, 0.01% Tween 20) were prepared in advance. ATR/ATRIP was diluted with reaction buffer to a working solution of 2 ng/μL, and the substrate protein P53 was diluted with reaction buffer to a working solution of 80 nM, and 4 nM of ATP (Sigma, A2383) working solution (containing 40 mM MnCl2) was prepared with reaction buffer. The compound was 3-fold diluted with DMSO, then diluted with reaction buffer into a working solution, then added to a 384-well plate at 2.5 μL/well, and centrifuged at 1500 rpm for 40 s. Then 2.5 μL of ATR/ATRIP working solution, P53 working solution and ATP working solution were added into the 384-well plate, centrifuged at 1500 rpm for 40 s and reacted at room temperature for 30 minutes. After the reaction was completed, 5 μL of termination buffer was added to each well, and centrifuged at 1500 rpm for 40 s. Antibody working solution containing 0.083 μg/mL anti-phospho-p53 (Ser15)-K (CisBio, cat. 61P08KAE) and 5 μg/mL anti-GST-d2 (CisBio, cat. 61GSTDLA) was prepared with assay buffer and added to the 384-well plate at 5 μL/well, then centrifuged at 1500 rpm for 40 s and reacted overnight at room temperature. Microplate reader (Tecan, Infinite M1000 Pro) was used to detect TR-FRET, and the data were analyzed with Graphpad software, and the four-parameter equation was used to fit the curve and calculate the IC50 value of the inhibitor (Table 1).
# [3] = system: LOVO human colon cancer cell line; experiment: Cell proliferation assay (Cell titer glo); assay type: cell-based; details: LOVO cells, 72 hours
# Description: In the present disclosure, cell assays were used to evaluate the biological activity of compounds. LOVO (Nanjing Cobioer), a human colon cancer cell line, was cultured in a Dulbecco's Modified Eagle's medium 96-well plate, supplemented with 10% fetal bovine serum and 1% P/S, and the culture environment was 37° C. and 5% CO2. Compound concentrations were ranged from 4.5 nM to 30 μM. The stock solution of the test compound was dissolved in DMSO and added to the medium at the indicated concentration, and incubated for 72 hours. Negative control cells were treated with vehicle only. In some experiments, known ATR inhibitors were added as positive controls. Cell viability was evaluated using the Cell titer glo kit (CTG, Promega) under the instructions of the product specification. The data were analyzed using Graphpad software, and IC50 values and compound fitting curves were obtained (Table 2).
# [4] = biological target: CYP2D6 (Homo sapiens (Human), UniProt P10635); experiment: Cytochrome oxidase P450 inhibition study, CYP2D6; assay type: in vitro ADME; details: human liver microsomes; read-out: IC50 2D6
# Sequence of CYP2D6 (P10635 whole entry): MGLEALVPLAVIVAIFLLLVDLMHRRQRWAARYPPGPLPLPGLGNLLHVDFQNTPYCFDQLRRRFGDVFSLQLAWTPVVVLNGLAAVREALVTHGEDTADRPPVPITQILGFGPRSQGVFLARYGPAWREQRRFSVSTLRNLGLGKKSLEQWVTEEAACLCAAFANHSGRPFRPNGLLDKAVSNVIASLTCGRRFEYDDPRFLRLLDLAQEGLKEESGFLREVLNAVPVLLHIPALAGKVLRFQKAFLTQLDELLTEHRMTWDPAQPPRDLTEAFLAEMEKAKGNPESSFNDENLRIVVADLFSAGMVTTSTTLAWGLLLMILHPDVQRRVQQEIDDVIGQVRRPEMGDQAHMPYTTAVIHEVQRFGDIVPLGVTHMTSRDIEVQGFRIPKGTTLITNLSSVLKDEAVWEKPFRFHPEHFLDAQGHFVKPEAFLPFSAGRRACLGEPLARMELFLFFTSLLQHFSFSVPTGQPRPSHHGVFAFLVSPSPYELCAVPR
# Description: as §1
# as §2, with “NADPH, CYP enzyme model substrate and human liver microsome solution were diluted to appropriate concentrations with pre-warmed potassium phosphate buffer (0.1 M, pH 7.4), respectively. The human liver microsome solution was purchased from BD Gentest (20 mg/mL, Corning, article number #452161).” left out
# (§3) […] of human liver microsome solution (0.2 mg/mL) was added to each well containing the test compound in the 96-well plate, and then 2 mL of the final test sample of test compounds prepared by serial dilution as described above was added thereto; for each well corresponding to the reference inhibitors, […] of human liver microsome solution (0.2 mg/mL) and 1 mL of the final test sample were added. […] The inhibition rate was determined by comparing the amount of model substrate metabolites at each test concentration without test substance addition, in the GraphPad Prism 5.0 software, the logarithm of the test concentration was used as the abscissa and the inhibition rate was used as the ordinate to perform a linear regression (Sigmoidal (non-linear) dose-response model) analysis to obtain the IC50 value of the test compound.
# [5] = biological target: CYP2C19 (Homo sapiens (Human), UniProt P33261); experiment: Cytochrome oxidase P450 inhibition study, CYP2C19; assay type: in vitro ADME; details: human liver microsomes; read-out: IC50 2C19
# Sequence of CYP2C19 (P33261 whole entry): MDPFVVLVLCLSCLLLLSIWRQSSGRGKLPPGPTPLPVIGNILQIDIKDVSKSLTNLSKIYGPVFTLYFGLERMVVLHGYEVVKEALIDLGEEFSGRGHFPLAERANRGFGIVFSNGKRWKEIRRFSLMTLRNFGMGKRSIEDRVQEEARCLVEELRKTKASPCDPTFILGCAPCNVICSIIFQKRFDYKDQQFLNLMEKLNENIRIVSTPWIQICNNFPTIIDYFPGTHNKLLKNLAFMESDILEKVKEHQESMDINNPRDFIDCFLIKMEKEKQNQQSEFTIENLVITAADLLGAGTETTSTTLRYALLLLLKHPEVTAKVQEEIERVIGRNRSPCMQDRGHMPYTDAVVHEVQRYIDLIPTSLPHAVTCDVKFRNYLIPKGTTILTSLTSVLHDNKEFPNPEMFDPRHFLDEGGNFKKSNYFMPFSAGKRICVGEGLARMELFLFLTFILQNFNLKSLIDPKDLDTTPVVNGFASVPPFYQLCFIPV
# Description: as §1
# as §2, with “NADPH, CYP enzyme model substrate and human liver microsome solution were diluted to appropriate concentrations with pre-warmed potassium phosphate buffer (0.1 M, pH 7.4), respectively. The human liver microsome solution was purchased from BD Gentest (20 mg/mL, Corning, article number #452161).” left out
# as §3
# [6] = substrate Midazolam, read-out: IC50 3A4 (Midazolam)
# [7] = substrate Testosterone, read-out: IC50 3A4 (Testosterone)
# Sequence of CYP3A4 (P08684 whole entry): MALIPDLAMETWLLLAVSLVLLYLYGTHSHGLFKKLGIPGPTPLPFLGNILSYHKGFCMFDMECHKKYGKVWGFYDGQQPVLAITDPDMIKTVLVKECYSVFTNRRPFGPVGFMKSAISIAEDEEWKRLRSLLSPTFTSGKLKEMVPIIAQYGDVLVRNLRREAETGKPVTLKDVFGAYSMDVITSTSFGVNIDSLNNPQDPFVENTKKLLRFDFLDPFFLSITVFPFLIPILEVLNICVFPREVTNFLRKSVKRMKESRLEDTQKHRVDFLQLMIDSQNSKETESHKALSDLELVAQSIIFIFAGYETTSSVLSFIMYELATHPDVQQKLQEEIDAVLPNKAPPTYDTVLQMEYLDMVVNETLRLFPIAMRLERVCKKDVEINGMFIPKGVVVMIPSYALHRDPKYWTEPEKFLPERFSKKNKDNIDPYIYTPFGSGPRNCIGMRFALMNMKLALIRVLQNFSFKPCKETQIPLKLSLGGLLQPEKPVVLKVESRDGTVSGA
"IC50 [1, 6]","IC50 [1, 7]",IC50 [2],IC50 [3],IC50 [4],IC50 [5],Structure (SMILES)
> 10 µM,> 10 µM,0.0012 µM,0.0296 µM,> 10 µM,> 10 µM,"C[C@@H]1COCCN1c1nc2c(cnn2-c2cc[nH]n2)c2c1ccn2S(C)(=O)=O [Compound 1, (R)-3-methyl-4-(1-(methylsulfonyl)-6-(1H-pyrazol-3-yl)-1,6-dihydropyrazolo[3,4-b]pyrrolo[2,3-d]pyridin-4-yl)morpholine trifluoroacetate]"
> 10 µM,> 10 µM,0.00069 µM,0.0373 µM,> 10 µM,> 10 µM,"C[C@@H]1COCCN1c1nc2c(cnn2-c2cc[nH]n2)c2c1CCN2S(C)(=O)=O [Compound 2, (R)-3-methyl-4-(1-(methylsulfonyl)-6-(1H-pyrazol-3-yl)-1,2,3,6-tetrahydropyrazolo[3,4-b]pyrrolo[2,3-d]pyridin-4-yl)morpholine trifluoroacetate]"

# — US20240025899A1, “TRIHETEROCYCLIC DERIVATIVE, AND PHARMACEUTICAL COMPOSITION AND APPLICATION THEREOF” (SHANGHAI DE NOVO PHARMATECH CO., LTD., priority 2020, published 2024)
